Data from patent US7880007B2, “Bicyclic substituted phenyl piperidine modulators of muscarinic receptors” (Vertex Pharmaceuticals Incorporated, priority 2004, dated 2011).

Key:
Type in all cases: cell-based
[1] = target: T1, M3 muscarinic receptor (Homo sapiens, UniProt P20309); assay: Functional mobilization of intracellular calcium (FLIPR), M3-CHO cells; conditions: for Emax: 100% efficacy = maximum response obtained with the Carbachol control; for M3 Activity: M3-CHO cells, calcium mobilization (FLIPR)
T1 construct: expressed in transfected cells; host or cells: CHO (M3-CHO)
T1 sequence (P20309 whole entry): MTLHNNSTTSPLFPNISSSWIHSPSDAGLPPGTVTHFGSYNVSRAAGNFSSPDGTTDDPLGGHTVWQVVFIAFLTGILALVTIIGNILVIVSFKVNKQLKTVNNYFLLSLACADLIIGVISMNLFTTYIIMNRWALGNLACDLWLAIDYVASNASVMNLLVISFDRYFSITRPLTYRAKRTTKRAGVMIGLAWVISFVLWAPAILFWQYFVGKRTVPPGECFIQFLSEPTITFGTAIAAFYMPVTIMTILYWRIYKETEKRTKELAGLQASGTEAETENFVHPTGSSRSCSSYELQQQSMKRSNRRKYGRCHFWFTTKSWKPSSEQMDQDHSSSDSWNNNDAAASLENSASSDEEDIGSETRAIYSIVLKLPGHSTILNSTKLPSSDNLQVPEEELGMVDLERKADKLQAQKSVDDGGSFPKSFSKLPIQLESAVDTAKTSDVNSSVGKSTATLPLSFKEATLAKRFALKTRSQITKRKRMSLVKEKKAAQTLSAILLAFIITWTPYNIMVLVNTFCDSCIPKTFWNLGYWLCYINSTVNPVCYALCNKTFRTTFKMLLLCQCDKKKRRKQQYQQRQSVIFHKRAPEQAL
How it was run: (§1)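 Calcium mobilisation read by FLIPR over 60 s (ex 488/em 540 nm) in recombinant muscarinic CHO lines loaded with calcium dye plus 1 mM probenecid. Compounds tested as agonists alone, or as inhibitors against EC80 carbachol after 15 min pre-incubation or co-addition; 0.5% DMSO; efficacy scaled to carbachol maximal response.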

[2] = target: T2, M1 muscarinic receptor (Homo sapiens, UniProt P11229); assay: Functional mobilization of intracellular calcium (FLIPR), M1-CHO cells; conditions: for Emax: 100% efficacy = maximum response obtained with the Carbachol control; for M1 Activity: M1-CHO cells, calcium mobilization (FLIPR)
T2 construct: expressed in transfected cells; host or cells: CHO (M1-CHO)
T2 sequence (P11229 1-460): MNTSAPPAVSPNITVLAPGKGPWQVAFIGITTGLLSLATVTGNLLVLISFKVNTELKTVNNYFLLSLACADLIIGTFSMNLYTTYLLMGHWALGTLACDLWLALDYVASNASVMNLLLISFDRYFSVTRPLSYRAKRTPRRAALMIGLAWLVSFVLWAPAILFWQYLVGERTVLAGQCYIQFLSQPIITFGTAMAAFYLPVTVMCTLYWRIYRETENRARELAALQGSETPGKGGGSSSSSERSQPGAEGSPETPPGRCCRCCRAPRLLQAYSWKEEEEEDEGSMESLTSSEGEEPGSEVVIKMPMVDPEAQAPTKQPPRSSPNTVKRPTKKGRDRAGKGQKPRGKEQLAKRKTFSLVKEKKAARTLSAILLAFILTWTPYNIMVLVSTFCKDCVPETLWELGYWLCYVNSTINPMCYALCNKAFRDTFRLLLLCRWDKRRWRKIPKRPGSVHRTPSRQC
How it was run: as §1

[3] = target: T3, M2 muscarinic receptor (Homo sapiens, UniProt P08172); assay: Functional mobilization of intracellular calcium (FLIPR), M2-CHO cells; conditions: for Emax: 100% efficacy = maximum response obtained with the Carbachol control; for M2 Activity: M2-CHO cells, calcium mobilization (FLIPR)
T3 construct: expressed in transfected cells; host or cells: CHO (M2-CHO)
T3 sequence (P08172 1-466): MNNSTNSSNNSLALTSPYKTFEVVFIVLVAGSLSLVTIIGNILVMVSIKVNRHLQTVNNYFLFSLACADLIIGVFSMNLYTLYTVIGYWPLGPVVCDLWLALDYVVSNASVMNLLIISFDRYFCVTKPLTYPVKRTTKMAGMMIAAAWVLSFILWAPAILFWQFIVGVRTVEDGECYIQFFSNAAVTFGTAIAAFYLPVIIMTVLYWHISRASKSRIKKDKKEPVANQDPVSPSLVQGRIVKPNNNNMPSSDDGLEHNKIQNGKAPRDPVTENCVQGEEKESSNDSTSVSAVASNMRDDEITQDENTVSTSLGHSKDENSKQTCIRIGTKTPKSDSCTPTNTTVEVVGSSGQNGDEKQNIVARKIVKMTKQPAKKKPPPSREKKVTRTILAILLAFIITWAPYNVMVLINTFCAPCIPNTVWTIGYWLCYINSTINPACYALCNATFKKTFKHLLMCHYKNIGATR
How it was run: as §1

[4] = target: T4, M4 muscarinic receptor (Homo sapiens, UniProt P08173); assay: Functional mobilization of intracellular calcium (FLIPR), M4-CHO cells; conditions: for Emax: 100% efficacy = maximum response obtained with the Carbachol control; for M4 Activity: M4-CHO cells, calcium mobilization (FLIPR)
T4 construct: expressed in transfected cells; host or cells: CHO (M4-CHO)
T4 sequence (P08173 1-479): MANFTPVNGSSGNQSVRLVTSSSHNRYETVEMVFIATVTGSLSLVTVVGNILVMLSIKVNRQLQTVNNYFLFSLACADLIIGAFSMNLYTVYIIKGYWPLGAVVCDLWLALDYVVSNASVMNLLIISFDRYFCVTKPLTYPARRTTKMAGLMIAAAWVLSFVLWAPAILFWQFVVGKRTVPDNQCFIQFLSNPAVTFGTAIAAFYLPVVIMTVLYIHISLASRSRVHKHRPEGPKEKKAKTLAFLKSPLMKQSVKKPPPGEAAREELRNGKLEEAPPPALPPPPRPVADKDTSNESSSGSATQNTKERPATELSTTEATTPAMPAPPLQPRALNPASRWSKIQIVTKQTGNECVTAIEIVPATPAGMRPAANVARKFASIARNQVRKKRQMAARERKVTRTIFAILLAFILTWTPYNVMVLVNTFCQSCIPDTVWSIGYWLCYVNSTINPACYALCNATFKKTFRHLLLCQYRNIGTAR
How it was run: as §1

SMILES	Emax [1] [%]	M3 Activity [1]	Emax [2] [%]	M1 Activity [2]	Emax [3] [%]	M2 Activity [3]	Emax [4] [%]	M4 Activity [4]
COc1ccccc1C1CCN(C2CCCS(=O)(=O)CC2)CC1 (stereo not drawn) [Compound 66]	< 25	+ (activity was measured to be greater than 5.0 μM)	25 to 100	+ (activity was measured to be greater than 5.0 μM)	< 25	+ (activity was measured to be greater than 5.0 μM)	25 to 100	++ (activity was measured to be from 1.0 μM to 5.0 μM)
COc1ccc(-c2ccccc2C)cc1C1CCN([C@@H]2C[C@H]3CC[C@H]2C3)CC1 [Compound 67]	< 25	+ (activity was measured to be greater than 5.0 μM)	< 25	+ (activity was measured to be greater than 5.0 μM)	< 25	+ (activity was measured to be greater than 5.0 μM)	25 to 100	+ (activity was measured to be greater than 5.0 μM)
CCOc1ccccc1C1CCN([C@H]2C[C@H]3CC[C@H]2C3)CC1 [Compound 68]	< 25	+ (activity was measured to be greater than 5.0 μM)	25 to 100	++ (activity was measured to be from 1.0 μM to 5.0 μM)	< 25	+ (activity was measured to be greater than 5.0 μM)	25 to 100	+++ (activity was measured to be less than 1.0 μM)
COc1cccc(-c2ccc(OC)c(C3CCN([C@@H]4C[C@H]5CC[C@H]4C5)CC3)c2)c1 [Compound 69]	< 25	+ (activity was measured to be greater than 5.0 μM)	< 25	+ (activity was measured to be greater than 5.0 μM)	< 25	+ (activity was measured to be greater than 5.0 μM)	25 to 100	+ (activity was measured to be greater than 5.0 μM)
FC(F)(F)Oc1ccccc1C1CCN(C2CCOCC2)CC1 [Compound 70]	< 25	+ (activity was measured to be greater than 5.0 μM)	25 to 100	+ (activity was measured to be greater than 5.0 μM)	< 25	+ (activity was measured to be greater than 5.0 μM)	25 to 100	++ (activity was measured to be from 1.0 μM to 5.0 μM)
COc1ccccc1C1CCN(C2CCN(C(=O)c3ccccc3)CC2)CC1 [Compound 71]	< 25	+ (activity was measured to be greater than 5.0 μM)	< 25	+ (activity was measured to be greater than 5.0 μM)	< 25	+ (activity was measured to be greater than 5.0 μM)	< 25	+ (activity was measured to be greater than 5.0 μM)
Cc1ccc(F)cc1C1CCN(C2C[C@H]3CC[C@H]2C3)CC1 (stereo partly drawn) [Compound 73]	< 25	+ (activity was measured to be greater than 5.0 μM)	25 to 100	++ (activity was measured to be from 1.0 μM to 5.0 μM)	25 to 100	++ (activity was measured to be from 1.0 μM to 5.0 μM)	25 to 100	+++ (activity was measured to be less than 1.0 μM)
COc1ccc(Cl)cc1C1(F)CCN(C2C3CCCC2CCC3)CC1 (stereo not drawn) [Compound 74]	< 25	+ (activity was measured to be greater than 5.0 μM)	< 25	+ (activity was measured to be greater than 5.0 μM)	< 25	+ (activity was measured to be greater than 5.0 μM)	< 25	+ (activity was measured to be greater than 5.0 μM)
COc1cc(F)c(F)cc1C1CCN([C@@H]2C[C@H]3CC[C@H]2C3)CC1 [Compound 76]	< 25	+ (activity was measured to be greater than 5.0 μM)	< 25	+ (activity was measured to be greater than 5.0 μM)	< 25	+ (activity was measured to be greater than 5.0 μM)	25 to 100	++ (activity was measured to be from 1.0 μM to 5.0 μM)
COc1ccc(-c2ccc3c(c2)OCO3)cc1C1CCN(C2CC3CCC(C3)C2)CC1 (stereo not drawn) [Compound 77]	< 25	+ (activity was measured to be greater than 5.0 μM)	< 25	+ (activity was measured to be greater than 5.0 μM)	< 25	+ (activity was measured to be greater than 5.0 μM)	25 to 100	+ (activity was measured to be greater than 5.0 μM)
COc1ccc(F)cc1C1CCN([C@H]2C[C@H]3CC[C@H]2C3)CC1 [Compound 78]	< 25	+ (activity was measured to be greater than 5.0 μM)	25 to 100	++ (activity was measured to be from 1.0 μM to 5.0 μM)	< 25	+ (activity was measured to be greater than 5.0 μM)	25 to 100	+++ (activity was measured to be less than 1.0 μM)
COc1ccccc1C1CCN(C2CC3CCC2C3)CC1 (stereo not drawn) [Compound 79]	< 25	+ (activity was measured to be greater than 5.0 μM)	25 to 100	+ (activity was measured to be greater than 5.0 μM)	< 25	+ (activity was measured to be greater than 5.0 μM)	25 to 100	+++ (activity was measured to be less than 1.0 μM)
COc1ccc(-c2ccc(C#N)cc2)cc1C1CCN(C2CC3CCC(C3)C2)CC1 (stereo not drawn) [Compound 82]	< 25	+ (activity was measured to be greater than 5.0 μM)	25 to 100	+ (activity was measured to be greater than 5.0 μM)	< 25	+ (activity was measured to be greater than 5.0 μM)	25 to 100	+ (activity was measured to be greater than 5.0 μM)
COc1ccc(Cl)cc1C1(F)CCN(C2CCC3CCC2C3)CC1 (stereo not drawn) [Compound 83]	< 25	+ (activity was measured to be greater than 5.0 μM)	25 to 100	+ (activity was measured to be greater than 5.0 μM)	25 to 100	+ (activity was measured to be greater than 5.0 μM)	25 to 100	++ (activity was measured to be from 1.0 μM to 5.0 μM)
CCNC(=O)c1ccc(-c2ccc(OC)c(C3CCN([C@H]4C[C@H]5CC[C@H]4C5)CC3)c2)cc1 [Compound 84]	< 25	+ (activity was measured to be greater than 5.0 μM)	< 25	+ (activity was measured to be greater than 5.0 μM)	< 25	+ (activity was measured to be greater than 5.0 μM)	< 25	+ (activity was measured to be greater than 5.0 μM)
